{
  "source": "patent EP0150892A2",
  "about": "“Substituted alkylidene imidazoles” (G.D. Searle & Co., priority 1984, dated 1985)",
  "biological_target": "T1, thromboxane synthetase (Cavia porcellus, UniProt H0UT36)",
  "T1 construct": "from tissue; host or cells: citrated whole blood (platelets) of albino male Dunkin-Hartley guinea pigs (printed 'Dunkin-Bartley') dosed orally",
  "T1 sequence (H0UT36 1-533)": "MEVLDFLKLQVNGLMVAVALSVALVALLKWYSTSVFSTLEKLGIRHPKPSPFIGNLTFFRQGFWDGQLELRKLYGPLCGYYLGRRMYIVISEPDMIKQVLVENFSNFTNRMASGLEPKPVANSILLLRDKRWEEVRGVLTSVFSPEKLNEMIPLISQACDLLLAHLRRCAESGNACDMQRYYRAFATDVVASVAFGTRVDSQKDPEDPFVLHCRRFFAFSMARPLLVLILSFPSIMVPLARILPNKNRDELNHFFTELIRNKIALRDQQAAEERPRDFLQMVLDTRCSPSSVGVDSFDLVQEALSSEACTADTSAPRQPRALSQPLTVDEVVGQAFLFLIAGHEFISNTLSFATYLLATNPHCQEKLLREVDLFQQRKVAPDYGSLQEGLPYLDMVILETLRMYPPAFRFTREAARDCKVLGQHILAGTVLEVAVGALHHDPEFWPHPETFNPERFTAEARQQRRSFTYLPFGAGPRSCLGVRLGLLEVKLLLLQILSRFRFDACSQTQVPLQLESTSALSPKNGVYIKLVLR",
  "assay": "Whole blood aggregation and thromboxane formation in vivo: guinea pig (plasma TXB2 by radioimmunoassay after oral dosing)",
  "conditions": "plasma TXB2 in collagen-stimulated citrated whole blood of guinea pigs dosed orally, versus vehicle controls; normalized to platelet count; dose not given",
  "data": [
    {"smiles": "CCOC(=O)c1ccc(/C=C(/COCc2ccc(OC)cc2)Cn2ccnc2)c(OC)c1", "note": "(single isomer, unassigned) [11 (E-isomer), ethyl 4-[3-(1H-imidazol-1-yl)-2-[[(4-methoxyphenyl]methoxy]methyl]-lE-propenyl]-3-methoxybenzoate]", "values": [
      {"measurement": "% INHIBITION", "value": -36.0, "unit": "%"}
    ]}
  ]
}
